Key:
Assay type in all cases: in vivo, rat
male Sprague-Dawley rats [1] = experiment: Forced swim test after 7-day chronic i.p. CPA injection
Excerpt: All animals were housed and treated humanely following the guidelines from the following governing bodies: National Research Council (US) Committee for the Update of the Guide for the Care and Use of Laboratory Animals (Washington DC, USA, 2011); Canadian Council on Animal Care (CCAC); and the University of Saskatchewan Animal Research Ethics Board (AREB), which approved our Animal Use Protocol (#20070090 and #20170079). The animals were housed in cages of two, with access to food pellets and water ad libitum. The four treatments of the Sprague-Dawley rats consisted of the following: 1. Control (0.1% DMSO in 0.9% saline); 2. CPA; 3. […] Drugs were dissolved at 3 mg/mL in DMSO, and each drug was administered to the animals by daily i.p. injections (3 mg/kg or 5 mg/kg body weight) for 7 consecutive days. […] Then, on days 8 and 9 following the final injections, the animals were subjected to several behavioral tests. The forced swim test is used to assess depressive behavior such as despair and learned helplessness. The test is also used to assess the vigor and the ability of the animal to keep its head above the water in which the animals swim. In addition, the first and last three minutes of the test were manually scored for the ability of the rat to swim with all its four limbs. […] In addition, the ability of the animal to keep its head above water was scored. […] The forced swim test apparatus was a plexiglass cuboid measuring 30 cm in length, 30 cm in width and 60 cm in depth. The tank was then filled two-thirds with lukewarm water not exceeding 25 °C. Afterwards, the animal was left in the cylinder for 10 min during which its time spent immobile as well as its ability to swim and keep its head above water was analyzed. This trial was then used to calculate the percentage of time the animals spent immobile, as well as the vigor and success with which the animal swam. A video camera was used to record the animal movement in this test. The forced swim test was conducted the following day (day nine), giving the animals a sufficient resting period from the Y-maze and open field tests. Each experiment was repeated at least fifteen times per treatment, and the average of each treatment is presented in the bar graphs as average means ± SEM.

[2] = tested on: SN pars compacta and hippocampal CA1 neurons; experiment: Fluoro-Jade C staining of brain slices (neurodegeneration)
Excerpt: All animals were housed and treated humanely following the guidelines from the following governing bodies: National Research Council (US) Committee for the Update of the Guide for the Care and Use of Laboratory Animals (Washington DC, USA, 2011); Canadian Council on Animal Care (CCAC); and the University of Saskatchewan Animal Research Ethics Board (AREB), which approved our Animal Use Protocol (#20070090 and #20170079). The animals were housed in cages of two, with access to food pellets and water ad libitum. The four treatments of the Sprague-Dawley rats consisted of the following: 1. Control (0.1% DMSO in 0.9% saline); 2. CPA; 3. […] Drugs were dissolved at 3 mg/mL in DMSO, and each drug was administered to the animals by daily i.p. injections (3 mg/kg or 5 mg/kg body weight) for 7 consecutive days. […] Then, on days 8 and 9 following the final injections, the animals were subjected to several behavioral tests. Fluro-Jade C (FJC) is a fluorescent marker for neurodegeneration (Millipore-Sigma, Oakville, ON, Canada; Cat# AG325). […] Initially, the microscope slides were immersed in 1% NaOH/80% ethanol for 5 min followed by 2 min immersion in 70% ethanol. The slides were then rinsed for 2 min with ultra-pure water. The microscope slides were further immersed in 0.06% KMnO4 for 10 min, followed by an additional rinse for 2 min with ultra-pure water. The slides were then stained with 0.004% FJC in 0.1% acetic acid for 20 min with gentle shaking on an orbital shaker. Lastly, the slides were rinsed three times in ultra-pure water for 1 min each, making sure to remove all the excess water after each rinse. The slides were then rinsed in xylene and allowed to dry overnight at 4 °C. Then they were treated with Prolong Gold Antifade Reagent from Invitrogen (Thermo Fisher Scientific, Waltham, MA, USA), and respective images were taken using a Zeiss LSM700 confocal microscope (Carl Zeiss Group, Canada) and analyzed with ImageJ (Public Domain). FJC fluorescence was obtained by exciting the dye with a 488 nm laser.

male Sprague-Dawley rats [3] = experiment: Open field test after 7-day chronic i.p. CPA injection
Excerpt: All animals were housed and treated humanely following the guidelines from the following governing bodies: National Research Council (US) Committee for the Update of the Guide for the Care and Use of Laboratory Animals (Washington DC, USA, 2011); Canadian Council on Animal Care (CCAC); and the University of Saskatchewan Animal Research Ethics Board (AREB), which approved our Animal Use Protocol (#20070090 and #20170079). The animals were housed in cages of two, with access to food pellets and water ad libitum. The four treatments of the Sprague-Dawley rats consisted of the following: 1. Control (0.1% DMSO in 0.9% saline); 2. CPA; 3. […] Drugs were dissolved at 3 mg/mL in DMSO, and each drug was administered to the animals by daily i.p. injections (3 mg/kg or 5 mg/kg body weight) for 7 consecutive days. […] Then, on days 8 and 9 following the final injections, the animals were subjected to several behavioral tests. The open field is a general locomotor test that detects anxiety and willingness to explore. The test is conducted in a white open cube measuring 50 cm in length, 50 cm in width and 35 cm in depth. The bottom field is gridded in 4x4 squares at 12.5 cm, with a center square in the middle of the field. The animal is placed in the center square and is free to explore the entirety of the field for 15 min. […] This trial is then used to calculate the percentage of time the animals spent in the center zone (red square) and the total fecal boli count. A video camera was used to record the animal movement in this test. The open field test was conducted after a 1 h resting period from the time the Y-maze second trial was completed. Each experiment was repeated at least ten times per treatment and the average of each treatment is presented in the bar graphs as average means ± SEM.

[4] = CPA 3 mg/kg i.p. daily for 7 days, alone
[5] = 3 or 5 mg/kg i.p. with 3 mg/kg CPA, 7 days

Row | SMILES | Forced swim test, motor deficits (male Sprague-Dawley rats [1]; [4]) | FJC fluorescence in SNc [2, 4] | FJC, degenerating neurons in CA1 region of the hippocampus [2, 4] | Open field, percentage of time spent in the center square (male Sprague-Dawley rats [3]; [4]) | Forced swim test, vigor and success scores (male Sprague-Dawley rats [1]; 5 mg/kg i.p. with 3 mg/kg CPA, 7 days) | Forced swim test, immobility time (male Sprague-Dawley rats [1]; [5]) | Forced swim test, motor deficits (male Sprague-Dawley rats [1]; [5]) | FJC staining in SNc ([2]; 3 mg/kg and 5 mg/kg + CPA) | FJC, neurodegeneration in CA1 region of the hippocampus ([2]; 3 mg/kg or 5 mg/kg with CPA) | Open field, fecal boli count (male Sprague-Dawley rats [3]; 3 and 5 mg/kg i.p. with 3 mg/kg CPA, 7 days) | Open field, exploratory behavior and anxiety (male Sprague-Dawley rats [3]; co-administered with 3 mg/kg CPA, 7 days)
1 | OC[C@H]1O[C@@H](n2cnc3c(NC4CCCC4)ncnc32)[C@H](O)[C@@H]1O [CPA, N^6-Cyclopentyladenosine, reference compound] | induced an increase in motor deficits | increased the levels of FJC fluorescence compared to the control | much higher levels of degenerating CA1 pyramidal neurons compared to the control | significantly lower percentage of time spent in the center square | – | – | – | – | – | – | –
2 | Cn1c(=O)c2c(nc(CCCCCCNC3CCc4ccccc43)n2C)n(C)c1=O (centres unmarked) [C8–6–I] | – | – | – | – | significantly improved the ability to purposely swim and use all limbs, as well as the ability to keep their head above water | spent significantly less time being immobile compared to the CPA-treated rats | produced no significant motor deficits | did not significantly increase FJC staining compared to the vehicle control slices | prevented neurodegeneration in hippocampal slices | significantly decreased the fecal boli count | improved the exploratory behavior and reduced the anxiety caused by CPA

— PMC11395333, “The Bifunctional Dimer Caffeine-Indan Attenuates α-Synuclein Misfolding, Neurodegeneration and Behavioral Deficits after Chronic Stimulation of Adenosine A1 Receptors” (International Journal of Molecular Sciences, 2024)
